From patent US11696938B2, “Human cancer cell metastasis inhibitory agent and human cancer cell determination agent” (priority 2017, dated 2023)

Experiments:
PC-3 cells [1] = experiment: Cell binding experiment; set-up: species or system human; conditions: 5 μM rhodamine-labeled; calcium absent; control hDC-p1
Source text: The PC-3 cell line (which may be referred to as “PC-3 cells” or, simply, “cells”), which is a commonly used cell line, was used. PC-3 cells were obtained from RIKEN BioResource Center (Cell No. RCB2145), and cultured in DMEM medium (+10% FBS) according to a conventional method. This line is a human prostate cancer-derived cell line.

PC-3 cells [2] = experiment: Cell invasion assay; assay type: cell-based, human; conditions: 10 μM; control hDC-p1 10 μM
Experimental: (§1) Cell invasion was analyzed using a BD BioCoat (registered trademark) Matrigel Invasion Chamber (Becton, Dickinson and Company). First, a certain amount of cells (about 1×10^5 cells/well) were treated with 2 μM, 8 μM, or 20 μM mouse dicalcin at room temperature for 20 minutes.
(§2) The treated cells were washed by centrifugation treatment, and then plated in the upper chamber of a transwell preliminarily coated with Matrigel, followed by performing culture using DMEM (+10% FBS) as a medium.
(§3) About 16 hours later, the invading cells that had migrated into the lower chamber were fixed using 4% paraformaldehyde/phosphate buffer at room temperature for 10 minutes, and then stained with crystal violet, followed by excision of the membrane, embedding on a slide, and counting of the cell number. The invasion index was calculated as {(number of stained cells)/(number of plated cells)}×100(%), and normalized by the later-mentioned result of Experimental Example 2-2, which was taken as 100(%).
An analysis was carried out in the same manner as in Experimental Example 2-1 except that PC-3 cells were used as the cells, and that 10 μM hDC-p6 was used as a partial peptide. Statistical analysis was carried out by unpaired Student t-test in order to analyze a significant difference.

OVCAR cells [3] = experiment: Cell binding experiment; set-up: species or system human; conditions: 5 μM rhodamine-labeled; calcium absent; control p1
human cancer tissues = experiment: Cell binding experiment on paraffin sections of human cancer tissues
Experimental: After washing, analysis was carried out using a fluorescence microscope (Olympus Corporation).
An experiment was carried out in the same manner as in Experimental Example 15-1 except that a paraffin section derived from a human prostate cancer tissue (US Biomax Inc.) was used as a target.
An experiment was carried out in the same manner as in Experimental Example 15-1 except that a paraffin section derived from a human colorectal (colon) cancer tissue (US Biomax Inc.) was used as a target. The white dotted line indicates the border between the tumor area and the normal area.
An experiment was carried out in the same manner as in Experimental Example 15-1 except that a paraffin section derived from a human colorectal (rectal) cancer tissue (US Biomax Inc.) was used as a target. The white dotted line indicates the border between the tumor area and the normal area.
An experiment was carried out in the same manner as in Experimental Example 15-1 except that a paraffin section derived from a human breast cancer (breast ductal carcinoma) tissue (US Biomax Inc.) was used as a target.
An experiment was carried out in the same manner as in Experimental Example 15-1 except that a paraffin section derived from a human breast cancer (invasive lobular carcinoma) tissue (US Biomax Inc.) was used as a target. […]

OVCAR cells [4] = experiment: Cell invasion assay; assay type: cell-based, human
Experimental: as §1, §2, §3
The OVCAR-3 cell line (which may be referred to as “OVCAR cells” or, simply, “cells”), which is a commonly used cell line, was used. OVCAR cells were obtained from RIKEN BioResource Center (Cell No. RCB2135), and cultured in DMEM medium (+10% FBS) according to a conventional method. This line is a human ovarian cancer (adenocarcinoma)-derived cell line.
An analysis was carried out in the same manner as in Experimental Example 2-1 except that OVCAR cells were used as the cells, and that 8 μM or 20 μM human dicalcin was used instead of mouse dicalcin.
An analysis was carried out in the same manner as in Experimental Example 9-1 except that 20 μM BSA was used instead of human dicalcin.
An analysis was carried out in the same manner as in Experimental Example 2-1 except that OVCAR cells were used as the cells, and that 2 μM or 10 μM hDC-p6 was used as a partial peptide. Statistical analysis was carried out by unpaired Student t-test in order to analyze a significant difference.

OV2944 cells [5] = experiment: Analysis of survival after cell transfer (Kaplan Meier); assay type: in vivo, mouse; conditions: intraperitoneal, 3 nmoles/two days
Experimental: The purified OV2944 cells expressing the fluorescent protein tdTomato were transferred into the abdominal cavity of mice (B6C3F1 strain, 9 weeks old, female, CLEA Japan, Inc.) (1×10^5 cells/mouse). […] On Day 21, the abdominal organs were removed, and OV2944 cells expressing the fluorescent protein tdTomato in the liver were observed using a fluorescence stereomicroscope OV110 (Olympus Corporation).
Intraperitoneal injection was carried out in the same manner as in Experimental Example 13-1 and Experimental Example 13-2, and survival analysis was carried out thereafter to provide Experimental Example 14-1 and Experimental Example 14-2. For the survival curve according to the Kaplan Meier method, a significant difference was analyzed by log-rank test.

OV2944 cells [6] = experiment: Cell invasion assay (Matrigel Invasion Chamber); assay type: cell-based, mouse; conditions: for cell invasion, ranking of suppression: 8 μM each, versus 10 μM BSA
Experimental: as §1, §2
About 16 hours later, the invading cells that had migrated into the lower chamber were fixed using 4% paraformaldehyde/phosphate buffer at room temperature for 10 minutes, and then stained with crystal violet, followed by excision of the membrane, embedding on a slide, and counting of the cell number.

OV2944 cells [7] = experiment: Cell binding experiment (fluorescently labeled protein/peptide, confocal microscope); set-up: species or system mouse; conditions: for cell-binding ability (fluorescence intensity): 5 μM rhodamine-labeled partial peptides, ranking
Experimental: The OV2944-HM-1 cell line (which may be referred to as “OV2944 cells” or, simply, “cells”), which is a commonly used cell line, was used. OV2944 cells were obtained from RIKEN BioResource Center (Cell No. RCB1483), and cultured in DMEM medium (+10% FBS) according to a conventional method.
Cultured cells were fixed on a glass plate (4% paraformaldehyde/phosphate buffer, room temperature, 10 minutes), and treated with sheep serum. Thereafter, mouse dicalcin (5 μM) fluorescently labeled with tetramethylrhodamine (TMR) was reacted with the cells in the presence of 1 mM CaCl2 (4° C., overnight). After washing with TBS buffer, analysis was carried out using a confocal microscope (Carl Zeiss). Further, cell nuclei were stained with DAPI.
An experiment was carried out in the same manner as in Experimental Example 1-1 except that the reaction was carried out in the presence of 1 mM EGTA (which may be referred to as “in the absence of calcium”).
An experiment was carried out in the same manner as in Experimental Example 1-1 except that immunostaining was carried out using an anti-mouse dicalcin antibody (Catalog No. MAB5167, R&D Systems) as a primary antibody, and an Alexa Fluor (registered trademark) 594-labeled anti-rat IgG antibody (Catalog No. A11007, Invitrogen) as a secondary antibody.
An experiment was carried out in the same manner as in Experimental Example 1-1 except that each of partial peptides p1 to p7 (5 μM) fluorescently labeled with rhodamine was used.

OVCAR cells [8] = experiment: Cell survival assay; assay type: cell-based, human; conditions: 20 μM; versus 10 μM BSA
Experimental: (§4) First, a certain amount of cells (about 1×10^5 cells/well) were treated with 20 μM mouse dicalcin at room temperature for 20 minutes. The cells were then washed and aliquoted into a 96-well plate, followed by performing culture. One hour later, after washing with PBS buffer, the cells were fixed using 4% paraformaldehyde/phosphate buffer at room temperature for 10 minutes. The cells were then stained with crystal violet and solubilized, followed by measuring the absorbance (measurement wavelength, 550 nm) in order to analyze the cell survival rate. The cell survival rate was calculated as {(number of stained cells)/(number of plated cells)}×100(%). Normalization was carried out by the later-mentioned result of Experimental Example 4-2, which was taken as 100(%).
An experiment was carried out in the same manner as in Experimental Example 4-1 except that OVCAR cells were used as the cells, and that 20 μM human dicalcin was used instead of mouse dicalcin.
An experiment was carried out in the same manner as in Experimental Example 10-1 except that 10 μM BSA was used instead of human dicalcin.

OV2944 cells [9] = experiment: Cell adhesion assay (Matrigel); assay type: cell-based, mouse; conditions: 8 or 20 μM
Experimental: First, a certain amount of cells (about 1×10^5 cells/well) were treated with 8 μM or 20 μM mouse dicalcin at room temperature for 20 minutes. After coating a 24-well plate with, and allowing gelation of, BD Matrigel (registered trademark) (Becton, Dickinson and Company), the pretreated cells were washed and plated therein.
About 1 hour later, nonadherent cells were aspirated. After washing, adherent cells were fixed using 4% paraformaldehyde/phosphate buffer at room temperature for 10 minutes, and then stained with crystal violet, followed by counting of the cell number. The adhesion index was calculated as {(number of stained cells)/(number of plated cells)}×100(%). Normalization was carried out by the later-mentioned result of Experimental Example 3-2, which was taken as 100(%).
An experiment was carried out in the same manner as in Experimental Example 3-1 except that mouse dicalcin was not added.
An experiment was carried out in the same manner as in Experimental Example 3-1 except that 10 μM BSA was used instead of mouse dicalcin.

OV2944 cells [10] = experiment: Cell survival assay (crystal violet); assay type: cell-based, mouse; conditions: 20 μM; versus 10 μM BSA
Experimental: as §4
An experiment was carried out in the same manner as in Experimental Example 4-1 except that 10 μM BSA was used instead of mouse dicalcin.

Question: Which results are given for “hDC-p6: partial peptide of human dicalcin, SEQ ID NO: 7, QLDFSEFLNLI (listed as Homo sapiens)”?
Answer: binding to the cells (fluorescence intensity) (PC-3 cells [1]): binds to the cells; cell invasion (invasion index) (PC-3 cells [2]): suppresses cell invasion; binding to the cells (fluorescence intensity) (OVCAR cells [3]): binds to the cells; binding to cancer cells of tissue sections (human cancer tissues; 5 μM, 4° C. overnight, ovarian, prostate, colon, rectal, breast (4 types), renal, lung, glioma): binds to cancer cells of any of these tissues; determination of tumor area by fluorescence positive reaction (human cancer tissues; colon cancer section, blocking and peptide reaction together, 37° C., 1 hour): tumor area could be determined; cell invasion (invasion index) (OVCAR cells [4]; 2 or 10 μM, control peptide p1 10 μM): suppresses cell invasion in a concentration-dependent manner

Question: For “p1: partial peptide of mouse dicalcin, SEQ ID NO: 12, PTETERCIE; used as control peptide (listed as Mus musculus)”, which “average number of days of survival” value (OV2944 cells [5]) is on record?
Answer: 32 days

Question: Which results are given for “p2: partial peptide of mouse dicalcin, SEQ ID NO: 13, SLIAVFQKY (listed as Mus musculus)”?
Answer: cell invasion, ranking of suppression (OV2944 cells [6]): followed by p2, p′7, and p5 in this order; cell-binding ability (fluorescence intensity) (OV2944 cells [7]): second highest cell-binding ability

Question: How did the “cell-binding ability (fluorescence intensity)” value (OV2944 cells [7]) turn out when “p4: partial peptide of mouse dicalcin, SEQ ID NO: 15, MNTELAAFTKNQKDPGVLDR (listed as Mus musculus)” was run?
Answer: third highest cell-binding ability

Question: What does the source list for “p5: partial peptide of mouse dicalcin, SEQ ID NO: 16, MMKKLDLNCDG (listed as Mus musculus)”?
Answer: cell invasion, ranking of suppression (OV2944 cells [6]): followed by p2, p′7, and p5 in this order; cell-binding ability (fluorescence intensity) (OV2944 cells [7]): second highest cell-binding ability

Question: What does the source list for “p7: partial peptide of mouse dicalcin, SEQ ID NO: 18, GGLAIACHDSFIQTSQKRI (listed as Mus musculus)”?
Answer: cell invasion, ranking of suppression (OV2944 cells [6]): followed by p2, p′7, and p5 in this order; cell-binding ability (fluorescence intensity) (OV2944 cells [7]): second highest cell-binding ability

B1: human dicalcin: recombinant full-length human dicalcin (S100A11), SEQ ID NO:1 (protein, listed as Homo sapiens)
chain: AKISSPTETERCIESLIAVFQKYAGKDGYNYTLSKTEFLSFMNTELAAFTKNQKDPGVLDRMMKKLDTNSDGQLDFSEFLNLIGGLAMACHDSFLKAVPSQKRT
Question: B1 was tested. Which cell survival rate (OVCAR cells [8]) did it give?
Answer: does not affect the survival of the cells

Question: What about the invasion index (OVCAR cells [4]; 20 μM, normalized to BSA as 100%) of the same molecule?
Answer: 43.9%

Question: What about the “cell invasion (invasion index)” value (OVCAR cells [4]; 8 or 20 μM human dicalcin, versus 20 μM BSA) of the same molecule?
Answer: suppresses the cell invasion in a concentration-dependent manner

B2: mouse dicalcin: recombinant full-length mouse dicalcin (S100A11), SEQ ID NO:11, expressed in E. coli (protein, listed as Mus musculus)
chain: PTETERCIESLIAVFQKYSGKDGNNTQLSKTEFLSFMNTELAAFTKNQKDPGVLDRMMKKLDLNCDGQLDFQEFLNLIGGLAIACHDSFIQTSQKRI
Question: Which “cell adhesion (adhesion index)” value (OV2944 cells [9]) does the source give for B2 here?
Answer: suppresses the cell adhesion in a concentration-dependent manner

Question: And the cell survival rate (OV2944 cells [10])?
Answer: does not affect the survival of the cells

Question: And the “cell invasion (invasion index)” value (OV2944 cells [6]; 2, 8 or 20 μM, normalized to 10 μM BSA)?
Answer: suppresses the cell invasion in a concentration-dependent manner

Question: And the “binding to the cells (fluorescence)” value (OV2944 cells [7]; 5 μM TMR-labeled, 1 mM CaCl2 versus 1 mM EGTA)?
Answer: larger amount of mouse dicalcin binds to the cells in the presence of calcium
